Experimental data published in paper PMC8119374 (Biochimie, 2021).

Target: mitochondrial respiratory Complex I (Mus musculus, UniProt P03888+Q91WD5+Q9DC70)
Format: biochemical

**Q.** For `Cc1cc(OCc2nnc(SC3CCCC3)n2-c2cccnc2)ccc1-c1ccc(S(C)(=O)=O)cc1` [NMS-873], which IC50 is on record?
**A.** 471 nM
